From patent US5334594A, “Amphoteric tricyclic compound” (Hokoriku Pharmaceutical Co., Ltd., priority 1992, dated 1994)
Structures can show the parent of a compound that is named as a salt. Where two headings read alike, the source gives them in different places.

Key:
[1] = system: compound 48/80-induced lethality (antihistaminic (H1) activity); experiment: Inhibitory effect on compound 48/80-induced lethality in rats (antihistaminic activity); format: in vivo, rat (male Wistar); details: Rattus norvegicus, po, 2 h; 1 mg/kg orally one hour before compound 48/80 (1 mg/kg i.v.); survival after two hours; read-out: Survival rate
Protocol: 1. Inhibitory Effects on Compound 48/80-Induced Lethality in Rats (Antihistaminic Activity)
The evaluation of antihistaminic activity was carried out according to the method of Niemegeers et al. (Arch. Int. Pharmacodyn. Ther., 234, 164 (1978)).
Male Wistar rats, 6 weeks of age, were used in the experiments. Compound 48/80 (formaldehyde condensation product of p-methoxy-N-methylphenethylamine) was administered intravenously to rats at a lethal dose of 1 mg/kg. Survival rates were determined according to an all or non criteria by using the numbers of rats that survived after two hours. Test compounds (1 mg/kg) were administered orally to rats one hour before the administration of compound 48/80.

[2] = system: 48 h homologous passive cutaneous anaphylaxis (PCA); experiment: Inhibitory effects on 48 h homologous passive cutaneous anaphylaxis (PCA) in rats (antiallergic activity); format: in vivo, rat (male Wistar); details: 1 mg/kg orally one hour before antigen challenge
Protocol: 2. Inhibitory Effects on 48 h Homologous Passive Cutaneous Anaphylaxis (PCA) in Rats (Antiallergic Activity)
The induction and evaluation of antiallergic activity were carried out according to the method of Makino et al. (Japan J. Pharmacology, 52, 87 (1990)).
Male Wistar rats, 6 weeks of age, were passively sensitized by intracutaneous injection on the back at a volume of 0.1 ml of 20- or 40-fold diluted anti-DNP-As rat serum. After 48 hours, the animals were challenged by an intravenous injection of 0.5 ml saline solution containing 1 mg of DNP-As and 5 mg of Evans blue. The animals were sacrificed 30 minutes after the challenge and then the extravasated dye was extracted with 1N KOH and acetone. After neutralization with 1N H3 PO4, the amount of dye was determined by measuring the absorbance of the extract at 620 nm. Test compounds (1 mg/kg) were orally administered to rats one hour before the antigen challenge. The inhibitory activity of test compounds were obtained as percent inhibition of PCA by comparing the results obtained from control rats.

[3] = system: histamine-induced bronchoconstriction; experiment: Inhibitory effects on histamine-induced bronchoconstriction in anesthetized guinea-pigs (antiasthmatic activity); format: in vivo, guinea-pig (male Hartley); details: for ED50: Cavia porcellus, 2 h, read-out: Antiasthmatic activity (B) ED50
Protocol: 3. Inhibitory Effects on Histamine-Induced Bronchoconstriction in Anesthetized Guinea-Pigs (Antiasthmatic Activity)
The induction and evaluation of antiasthmatic activity were carried out according to the method of Makino et al. (J. Pharm. Pharmacol., 42, 236 (1990)).
Male Hartley guinea-pigs, 6 weeks of age, were anesthetized with urethane ( 1.5 g/kg, i.p. ). The carotid artery and jugular vein were cannulated to measure arterial blood pressure and to facilitate intravenous histamine administration. The trachea was cannulated and the animals were ventilated using a respiratory pump (60 strokes/min; 4 ml/stroke). Changes in insufflation pressure induced by the administration of histamine (20 μg/kg, i.v.) at a constant airflow were constantly monitored as percentage values based on the maximum pressure (100%) (Bronchospasm tramsducer 7020, Ugo Basile). Test compounds were administered orally to animals two hours before the administration of histamine. The ED50 values (doses which induce 50% inhibition of histamine-induced broncho-constriction compared to inhibition observed in control) were calculated using dose-inhibition curves.

histamine (H1) receptor = molecular target: T1, histamine (H1) receptor (Cavia porcellus, UniProt P31389); experiment: Inhibitory effects on ex vivo [^3 H]-mepyramine binding to guinea-pig cerebral cortex (degree of penetration into brain); format: in vivo, guinea-pig (male Hartley); details: for ED50: 2 h, oral, two hours, ex vivo [^3 H]-mepyramine binding, guinea-pig cerebral cortex, read-out: Degree of penetration activity (A) ID50; for Selectivity (C/B): ratio of ID50 (brain penetration, C) to ED50 (antiasthmatic activity, B)
T1 construct: Separated cerebral cortices were homogenized in 50-folds volume of 50 mM Na/K-phosphate buffer (pH 7.4); from tissue; host or cells: guinea-pig cerebral cortex, crude membrane fraction (homogenate)
T1 sequence (P31389 whole entry): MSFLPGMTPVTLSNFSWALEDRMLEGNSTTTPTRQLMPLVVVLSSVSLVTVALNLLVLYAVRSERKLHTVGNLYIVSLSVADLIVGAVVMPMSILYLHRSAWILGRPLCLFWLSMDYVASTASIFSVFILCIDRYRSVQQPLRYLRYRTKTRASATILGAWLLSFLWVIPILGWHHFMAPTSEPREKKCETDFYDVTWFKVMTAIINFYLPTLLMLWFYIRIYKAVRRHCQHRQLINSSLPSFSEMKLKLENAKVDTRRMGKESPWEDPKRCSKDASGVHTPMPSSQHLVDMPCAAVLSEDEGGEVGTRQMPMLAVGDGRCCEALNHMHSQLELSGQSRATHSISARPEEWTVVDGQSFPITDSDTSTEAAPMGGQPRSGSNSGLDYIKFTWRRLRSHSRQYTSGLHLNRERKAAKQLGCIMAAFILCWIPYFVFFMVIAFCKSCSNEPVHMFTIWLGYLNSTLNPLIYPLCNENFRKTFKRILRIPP
Protocol: 4. Inhibitory Effects on Ex Vivo [^3 H]-Mepyramine Binding to Guinea-Pig Cerebral Cortex (Degree of Penetration into Brain)
The evaluation of histamine (H1) receptor affinity on guinea-pig cerebral cortex was carried out according to the method of Ahn et al. (Eur. J. Pharmacol., 127, 153 (1986)).
Male Hartley guinea-pigs, 6 weeks of age, were administered orally with test compounds or vehicles. After two hours, animals were killed by exsanguination and brains were rapidly isolated. Separated cerebral cortices were homogenized in 50-folds volume of 50 mM Na/K-phosphate buffer (pH 7.4). These homogenates were used as crude membrane fractions for receptor binding assay. [^3 H]-mepyramine was used as a radio-active ligand. […] The ID50 values (doses which induce 50% inhibition of specific binding of vehicle treated group) were calculated using dose-inhibition curves.

[4] = molecular target: muscarinic acetylcholine receptor; experiment: Inhibition of [^3 H]-QNB binding to rat cerebral cortex membrane (muscarinic acetylcholine receptor binding assay); details: -log Ki by Cheng and Prusoff
[5] = oral, two hours before histamine (20 μg/kg, i.v.), anesthetized guinea-pigs

SMILES | responders at 1 mg/kg [1] | Antiallergic activity (A) inhibition (%) [2] | pKi [4] | also measured
O=C(O)CCN1CCC(=C2c3ccccc3OCc3cccnc32)CC1 [Example 1-(2), 3-[4-(5,11-Dihydrobenz[b]oxepino[4,3-b]pyridin-11-ylidene)piperidino]propionic Acid.Hydrochloride] | 80% | 80% | – | ED50 [3, 5]: 0.082 mg/kg; ED50 (histamine (H1) receptor): 36 mg/kg; Selectivity (C/B) (histamine (H1) receptor): 439
O=C(O)CCN1CCC(=C2c3ccc(F)cc3OCc3cccnc32)CC1 [Example 2-(2), 3-[4-(8-Fluoro-5,11-dihydrobenz[b]oxepino[4,3-b]pyridin-11-ylidene)piperidino]propionic Acid] | 100% | 78% | < 5 | ED50 [3, 5]: 0.046 mg/kg; ED50 (histamine (H1) receptor): 32 mg/kg; Selectivity (C/B) (histamine (H1) receptor): 696
O=C(O)CCN1CCC(=C2c3cccc(Cl)c3OCc3cccnc32)CC1 [Example 4-(2), 3-[4-(7-Chloro-5,11-dihydrobenz[b]oxepino[4,3-b]pyridin-11-ylidene)piperidino]propionic Acid. Hydrochloride] | 100% | – | – | –
O=C(O)CCN1CCC(=C2c3ccc(Cl)cc3OCc3cccnc32)CC1 [Example 5-(2), 3-[4-(8-Chloro-5,11-dihydrobenz[b]oxepino[4,3-b]pyridin-11-ylidene)piperidino]propionic Acid. Hydrochloride] | 100% | 79% | < 5 | ED50 [3, 5]: 0.023 mg/kg; ED50 (histamine (H1) receptor): 53 mg/kg; Selectivity (C/B) (histamine (H1) receptor): 2304
O=C(O)CCN1CCC(=C2c3cc(Cl)ccc3OCc3cccnc32)CC1 [Example 6-(2), 3-[4-(9-Chloro-5,11-dihydrobenz[b]oxepino[4,3-b]pyridin-11-ylidene)piperidino]propionic Acid] | 100% | – | – | –
O=C(O)CCN1CCC(=C2c3ccccc3Oc3cccnc32)CC1 [Example 8-(2), 3-[4-(10H-benzo[b]pyrano[3,2-b]pyridin-10-ylidene)piperidino]propionic Acid] | 100% | – | – | –
O=C(O)CCN1CCC(=C2c3ccc(F)cc3Oc3cccnc32)CC1 [Example 9-(2), 3-[4-(7-Fluoro-10H-benzo[b]pyrano[3,2-b]pyridin-10-ylidene)piperidino]propionic Acid] | 100% | – | – | –
O=C(O)CCCN1CCC(=C2c3ccc(F)cc3OCc3cccnc32)CC1 [Example 10-(2), 4-[4-(8-Fluoro-5,11-dihydrobenz[b]oxepino[4,3-b]pyridin-11-ylidene)piperidino]butyric Acid] | 100% | – | – | –
O=C(O)CCCCN1CCC(=C2c3ccc(F)cc3OCc3cccnc32)CC1 [Example 11-(2), 5-[4-(8-Fluoro-5,11-dihydrobenz[b]oxepino[4,3-b]pyridin-11-ylidene)piperidino]valetic Acid] | 100% | – | – | –
O=C(O)CCCCCN1CCC(=C2c3ccc(F)cc3OCc3cccnc32)CC1 [Example 12-(2), 6-[4-(8-Fluoro-5,11-dihydrobenz[b]oxepino[4,3-b]pyridin-11-ylidene)piperidino]hexanoic Acid . Hydrochloride] | 100% | – | – | –
CC(CN1CCC(=C2c3ccc(F)cc3OCc3cccnc32)CC1)C(=O)O (stereo not shown) [Example 14-(2), 3-[4-(8-Fluoro-5,11-dihydrobenz[b]oxepino[4,3-b]pyridin-11-ylidene)piperidino]-2-methylpropionic Acid] | 100% | – | – | –
O=C(O)CCCN1CCC(=C2c3ccc(Cl)cc3OCc3cccnc32)CC1 [Example 18-(2), 4-[4-(8-Chloro-5,11-dihydrobenz[b]oxepino[4,3-b]pyridin-11-ylidene)piperidino]butyric Acid. Hydrochloride] | 80% | – | – | –
O=C(O)CCCCN1CCC(=C2c3ccc(Cl)cc3OCc3cccnc32)CC1 [Example 20-(2), 5-[4-(8-Chloro-5,11-dihydrobenz[b]oxepino[4,3-b]pyridin-11-ylidene)piperidino]valeric Acid. Hydrochloride] | 100% | – | – | –
O=C(O)CCCCCN1CCC(=C2c3ccc(Cl)cc3OCc3cccnc32)CC1 [Example 21-(2), 6-[4-(8-Chloro-5,11-dihydrobenz[b]oxepino[4,3-b]pyridin-11-ylidene)piperidino]hexanoic Acid . Hydrochloride] | 100% | – | – | –
O=C(O)CCCN1CCC(=C2c3ccc(F)cc3Oc3cccnc32)CC1 [Example 23-(2), 4-[4-(7-Fluoro-10H-benzo[b]pyrano[3,2-b]pyridin-10-ylidene)piperidino]butyric Acid] | 100% | – | – | –
CN1CCC(=C2c3ccccc3CCc3cccnc32)CC1 [Reference compound A, Azatadine, reference compound] | 60% | 77% | 8.47 | ED50 [3, 5]: 0.001 mg/kg; ED50 (histamine (H1) receptor): 0.028 mg/kg; Selectivity (C/B) (histamine (H1) receptor): 28
CCOC(=O)N1CCC(=C2c3ccc(Cl)cc3CCc3cccnc32)CC1 [Reference compound B, Loratadine] | 60% | 38% | 6.04 | ED50 ([3]; po): 0.13 mg/kg
CC(=O)N1CCC(=C2c3ccc(Cl)cc3OCc3cccnc32)CC1 [Reference compound C] | 20% | -11% | 5.72 | Antiasthmatic activity (B) ED50 [3, 5]: No effect (1 mg/kg)
CCOC(=O)CN1CCC(=C2c3ccc(Cl)cc3CCc3cccnc32)CC1 [Reference compound D, reference compound] | 40% | 41% | 5.84 | ED50 [3, 5]: 0.29 mg/kg; ED50 (histamine (H1) receptor): 11 mg/kg; Selectivity (C/B) (histamine (H1) receptor): 38
